This experiment deals with T1, cholinesterase (Rattus norvegicus, UniProt P37136).
T1 construct: The S1 fraction of a cerebral cortex homogenate from male Wistar rats; from tissue; host or cells: cerebral cortex homogenate (S1 fraction), male Wistar rats
The experiment in a line: anticholinesterase activity using (acetyl-[3H])-acetylcholine, S1 fraction of rat cerebral cortex homogenate. Type of experiment: biochemical, male Wistar rats. The settings on record: (acetyl-[3H])-acetylcholine substrate, 30 minutes incubation.

Molecules are shown by their SMILES. Structures can show the parent of a compound that is named as a salt.

T1 sequence (P37136 32-614): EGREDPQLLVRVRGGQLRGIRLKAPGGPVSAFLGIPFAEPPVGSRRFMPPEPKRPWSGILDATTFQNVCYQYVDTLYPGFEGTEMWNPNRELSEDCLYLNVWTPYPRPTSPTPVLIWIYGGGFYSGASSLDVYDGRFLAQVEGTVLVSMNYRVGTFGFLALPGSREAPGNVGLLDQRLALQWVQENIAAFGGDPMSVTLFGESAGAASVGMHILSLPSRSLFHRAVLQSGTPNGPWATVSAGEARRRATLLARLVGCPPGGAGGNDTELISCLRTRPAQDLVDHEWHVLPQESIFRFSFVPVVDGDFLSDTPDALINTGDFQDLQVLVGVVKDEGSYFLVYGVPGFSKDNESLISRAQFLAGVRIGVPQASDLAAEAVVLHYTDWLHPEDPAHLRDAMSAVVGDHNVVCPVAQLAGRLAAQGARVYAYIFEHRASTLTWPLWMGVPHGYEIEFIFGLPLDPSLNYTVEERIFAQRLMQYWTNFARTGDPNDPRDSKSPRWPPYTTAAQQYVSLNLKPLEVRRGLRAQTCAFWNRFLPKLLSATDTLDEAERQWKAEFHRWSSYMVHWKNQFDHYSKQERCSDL
Description: The anticholinesterase activity of the compound of the invention was evaluated using (acetyl-[^3 H])-acetylcholine. The S1 fraction of a cerebral cortex homogenate from male Wistar rats was used as the cholinesterase source, (acetyl-[^3 H])-acetylcholine as the substrate and the test compound of the invention as the test substance. The incubation was carried out for 30 minutes and after the reaction was terminated, the system was shaken with a toluene scintillator to thereby transfer [^3 H]-acetic acid into the toluene layer. The radioactivity in the toluene layer was then measured with a liquid scintillation counter to estimate the anticholinesterase activity of the test compound.
The anticholinesterase activity of the test compound was expressed in 50% inhibitory concentration (IC50).

`CCN(CCCCCC1Cc2cc(OC)c(OC)cc2C1=O)Cc1ccccc1` (stereo not shown) [Example 3-1]: half-maximal inhibition (IC50) required 120 nM.

As to `CCN(CCCCC1Cc2cc(OC)c(OC)cc2C1=O)Cc1ccccc1OC` (stereo not shown) [Example 3-2], the IC50 was determined as 20 nM.

`CCN(CCCCC1Cc2cc(OC)c(OC)cc2C1=O)Cc1ccccc1` (stereo not shown) [Example 3-3] yielded a concentration for half-maximal inhibition (IC50) of 76 nM.

On to `CCN(CCCC1Cc2cc(OC)c(OC)cc2C1=O)Cc1ccccc1OC` (stereo not shown) [Example 3-4], for which the IC50 was found to be 11 nM.

`CCN(CCC1Cc2cc(OC)c(OC)cc2C1=O)Cc1ccccc1OC` (stereo not shown) [Example 3-5] registered a half-maximal inhibitory concentration (IC50) of 680 nM.

Consider `CCN(CCCC1Cc2cc(OC)c(OC)cc2C1=O)Cc1ccccc1OC` (stereo not shown) [Example 3-6], for which the IC50 is 14 nM.

`CCN(CCCCC1Cc2cc(OC)c(OC)cc2C1=O)Cc1ccccc1OC` (stereo not shown) [Example 3-7] came in with a half-inhibitory concentration (IC50) of 27 nM.

Compound `CCN(CCCCC1Cc2cc(OC)c(OC)cc2C1=O)Cc1cccc(OC)c1` (stereo not shown) [Example 3-8] had an IC50 of 110 nM.

`CCN(CCCCC1Cc2cc(OC)c(OC)c(OC)c2C1=O)Cc1ccccc1OC` (stereo not shown) [Example 3-9] displayed an IC50 of 90 nM.

In turn, `CCN(CCCCC1Cc2cc(OC)ccc2C1=O)Cc1ccccc1OC` (stereo not shown) [Example 3-10] showed an IC50 of 110 nM.

Turning to `CCN(CCCCC1Cc2cc3c(cc2C1=O)OCO3)Cc1ccccc1OC` (stereo not shown) [Example 3-11], the IC50 is 170 nM.

`CCN(CCCCCC1CCc2cc(OC)ccc2C1=O)Cc1ccccc1OC` (stereo not shown) [Example 3-12] yielded an IC50 of 130 nM.

Compound `CCN(CCCC1Cc2cc(OC)c(OC)cc2C1=O)Cc1cccc(O)c1` (stereo not shown) [Example 3-13] showed an IC50 of 210 nM.

`CCN(CCCCC1Cc2cc(OC)c(OC)cc2C1=O)Cc1cccc(O)c1` (stereo not shown) [Example 3-14] displayed a 50% inhibitory concentration (IC50) of 630 nM.

Compound `CCN(CCCCCCC1Cc2cc(OC)c(OC)cc2C1=O)Cc1ccccc1OC` (stereo not shown) [Example 3-15] displayed an IC50 of 100 nM.

The compound `CCN(CCCCCC1Cc2cc(OC)c(OC)cc2C1O)Cc1ccccc1OC` (stereo not shown) [Example 4, 1,2-Dihydro-5,6-dimethoxy-2-[5-[N-ethyl-N-[(2-methoxyphenyl)methyl]amino]pentyl]-1-hydroxyindene] registered an IC50 of 160 nM.

As to `CCN(CCCCCC1=Cc2cc(OC)c(OC)cc2C1)Cc1ccccc1OC` [Example 5, 5,6-Dimethoxy-2-[5-[N-ethyl-N-[(2-methoxyphenyl)methyl]amino]pentyl]indene hydrochloride], the IC50 came to 600 nM.

As for `CCN(CCCCC1Cc2cc(N3CCCC3)ccc2C1=O)Cc1ccccc1` (stereo not shown) [Example 7, 2-[4-[N-Ethyl-N-(phenylmethyl)amino]butyl]-5-pyrrolidino-1-indanone fumarate], half-maximal inhibition (IC50) required 143 nM.

Take `CCN(CCCCC1Cc2cc(N3CCCC3)ccc2C1=O)Cc1ccccc1OC` (stereo not shown) [Example 8, 2-[4-[N-Ethyl-N-[(2-methoxyphenyl)methyl]amino]butyl]-5-pyrrolidino-1-indanone fumarate]: inhibition was half-maximal at 81 nM (IC50).

As usually defined, the IC50 is the concentration that inhibits the measured activity by half. Read a high IC50 as weaker potency.

The values are drawn from patent publication US5180746A, “Aralkylamine compounds” (priority 1989, dated 1993).
